Assay results taken from ChEMBL document CHEMBL1201862, “PubChem BioAssay data set” (2004).
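Briefly, cells in 96-well plates were exposed to five compound concentrations for 48 h, and endpoints were estimated by linear interpolation. GI50 is the concentration that inhibits growth by half.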 The source made the active and inactive calls. Cut-off read from the data, not from the text of the source: active = GI50 up to about 1.1 µM and inactive = higher.

Assays:
Assay in all cases: DTP human tumour cell line panel, 48 h
TK-10 = tested on: TK-10
CCRF-CEM = tested on: CCRF-CEM
HCT-116 = tested on: HCT-116
A498 = tested on: A498
786-0 = tested on: 786-0
HCT-15 = tested on: HCT-15
UO-31 = tested on: UO-31
MOLT-4 = tested on: MOLT-4
NCI-H226 = tested on: NCI-H226
DMS-114 = tested on: DMS-114
HL-60 = tested on: HL-60
RXF 393 = tested on: RXF 393
OVCAR-4 = tested on: OVCAR-4
ACHN = tested on: ACHN
SN12C = tested on: SN12C
UACC-257 = tested on: UACC-257
HOP-62 = tested on: HOP-62
SF-295 = tested on: SF-295
SK-MEL-28 = tested on: SK-MEL-28
SF-268 = tested on: SF-268

Structure (SMILES) | GI50 (TK-10) | GI50 (CCRF-CEM) | GI50 (HCT-116) | GI50 (A498) | GI50 (786-0) | GI50 (HCT-15) | GI50 (UO-31) | GI50 (MOLT-4) | GI50 (NCI-H226) | GI50 (DMS-114) | GI50 (HL-60) | GI50 (RXF 393) | GI50 (OVCAR-4) | GI50 (ACHN) | GI50 (SN12C) | GI50 (UACC-257) | GI50 (HOP-62) | GI50 (SF-295) | GI50 (SK-MEL-28) | GI50 (SF-268)
O=C(/C=C\c1cccc2ccccc12)c1cccc2ccccc12 | > 10 µM (inactive) | 3.3 µM (inactive) | 6.22 µM (inactive) | 17.2 µM (inactive) | 4.4 µM (inactive) | 4.03 µM | 14.3 µM (inactive) | 2.82 µM (inactive) | 9.16 µM (inactive) | 5.51 µM (inactive) | 3.64 µM (inactive) | 5 µM (inactive) | 6.37 µM (inactive) | 11.6 µM (inactive) | 15.5 µM (inactive) | 16 µM (inactive) | 20.7 µM (inactive) | 14.7 µM (inactive) | 8.17 µM (inactive) | –
N#Cc1c2c(c(N=P(c3ccccc3)(c3ccccc3)c3ccccc3)n3c1nc1ccccc13)CCCC2 | – | 16.7 µM (inactive) | 17.6 µM (inactive) | 20.2 µM (inactive) | 44 µM (inactive) | 20.7 µM | 12.4 µM (inactive) | 19.6 µM (inactive) | 3.68 µM (inactive) | 21.5 µM (inactive) | 3.86 µM (inactive) | 46.2 µM (inactive) | 23.4 µM (inactive) | 15.7 µM (inactive) | 13.1 µM (inactive) | 15.5 µM (inactive) | 19 µM (inactive) | 12.8 µM (inactive) | 43.7 µM (inactive) | > 100 µM (inactive)
COC(=O)N/N=C(\Cc1ccccc1)CN(C)C | > 100 µM (inactive) | > 100 µM (inactive) | > 100 µM (inactive) | > 100 µM (inactive) | > 100 µM (inactive) | – | – | > 100 µM (inactive) | – | > 100 µM (inactive) | > 100 µM (inactive) | > 100 µM (inactive) | – | > 100 µM (inactive) | – | > 100 µM (inactive) | > 100 µM (inactive) | > 100 µM (inactive) | > 100 µM (inactive) | > 100 µM (inactive)
O=c1cc2n(c(=O)[nH]1)C1OC(C(O)C1O)[C@@H]2CCO (stereo not given in full) | > 100 µM (inactive) | > 100 µM (inactive) | – | > 100 µM (inactive) | > 100 µM (inactive) | – | > 100 µM (inactive) | > 100 µM (inactive) | > 10 µM (inactive) | > 100 µM (inactive) | > 100 µM (inactive) | > 100 µM (inactive) | > 100 µM (inactive) | > 100 µM (inactive) | > 100 µM (inactive) | > 100 µM (inactive) | > 100 µM (inactive) | > 100 µM (inactive) | > 100 µM (inactive) | > 100 µM (inactive)
CCSC1=C(C)N(/C=N/C(C)(C)C)CC1 | > 100 µM (inactive) | > 100 µM (inactive) | > 100 µM (inactive) | > 100 µM (inactive) | > 100 µM (inactive) | > 100 µM | > 100 µM (inactive) | > 100 µM (inactive) | > 100 µM (inactive) | > 100 µM (inactive) | > 100 µM (inactive) | > 100 µM (inactive) | > 100 µM (inactive) | > 100 µM (inactive) | > 100 µM (inactive) | > 100 µM (inactive) | > 100 µM (inactive) | > 100 µM (inactive) | > 100 µM (inactive) | > 100 µM (inactive)
C[C@]12CC[C@H](O)CC1=CC[C@@H]1C2CC[C@]2(C)Nc3c(cnn3-c3ccccc3)CC12 (stereo not given in full) | 9.48 µM (inactive) | 3.01 µM (inactive) | 3.01 µM (inactive) | 3.61 µM (inactive) | 1.56 µM (inactive) | 2.23 µM | 5.51 µM (inactive) | 1.5 µM (inactive) | 8.57 µM (inactive) | 2.82 µM (inactive) | 1.77 µM (inactive) | 0.441 µM (active) | 7.23 µM (inactive) | 3.26 µM (inactive) | – | 3.78 µM (inactive) | 2.81 µM (inactive) | 0.388 µM (active) | 2.86 µM (inactive) | –
Cc1ccccc1C(CCCO)C(=O)O (stereo not given) | > 100 µM (inactive) | > 100 µM (inactive) | > 100 µM (inactive) | > 100 µM (inactive) | > 100 µM (inactive) | > 100 µM | > 100 µM (inactive) | > 100 µM (inactive) | – | > 100 µM (inactive) | > 100 µM (inactive) | > 100 µM (inactive) | > 100 µM (inactive) | > 100 µM (inactive) | > 100 µM (inactive) | > 100 µM (inactive) | > 100 µM (inactive) | > 100 µM (inactive) | > 100 µM (inactive) | > 100 µM (inactive)
CN(C)CC/C(=N\Nc1ccc([N+](=O)[O-])cc1)c1ccccc1 | 4.14 µM (inactive) | 7.23 µM (inactive) | 11.7 µM (inactive) | 13.2 µM (inactive) | 12.6 µM (inactive) | 13.6 µM | 2.1 µM (inactive) | 7.43 µM (inactive) | – | 5.14 µM (inactive) | 3.61 µM (inactive) | 4.5 µM (inactive) | 18.3 µM (inactive) | 2.61 µM (inactive) | 10.9 µM (inactive) | 16.8 µM (inactive) | 14.2 µM (inactive) | 11.5 µM (inactive) | 12.7 µM (inactive) | 7.94 µM (inactive)
O=C(Nc1ccccc1)N1C(c2ccccc2)=N[C@@H](c2ccccc2)[C@@H]1c1ccccc1 | 31.3 µM (inactive) | 22.6 µM (inactive) | 17.6 µM (inactive) | 18.3 µM (inactive) | 17.6 µM (inactive) | 23.8 µM | 16.1 µM (inactive) | 19.1 µM (inactive) | 23.3 µM (inactive) | 14.7 µM (inactive) | 19 µM (inactive) | 15.2 µM (inactive) | 17.6 µM (inactive) | 15.3 µM (inactive) | 21.9 µM (inactive) | 19 µM (inactive) | 20.6 µM (inactive) | 21.9 µM (inactive) | 15.6 µM (inactive) | 22.3 µM (inactive)
CCOc1ccccc1NC(=O)C1=C(C)NC(C)=C(C(=O)Nc2ccccc2OCC)C1c1ccc(NC(C)=O)cc1 | 47.6 µM (inactive) | 61.4 µM (inactive) | – | 23.8 µM (inactive) | 29.6 µM (inactive) | – | 23.6 µM (inactive) | 32.1 µM (inactive) | 27.7 µM (inactive) | 40.2 µM (inactive) | 31.6 µM (inactive) | 20.8 µM (inactive) | 43.8 µM (inactive) | 22.4 µM (inactive) | 30.2 µM (inactive) | 23.6 µM (inactive) | 9.66 µM (inactive) | 13.2 µM (inactive) | 73.8 µM (inactive) | 56.6 µM (inactive)
COC(=O)C1CC2(CC3=C1CCCC3)OCCO2 (stereo not given) | > 100 µM (inactive) | > 100 µM (inactive) | > 100 µM (inactive) | > 100 µM (inactive) | > 100 µM (inactive) | > 100 µM | > 100 µM (inactive) | – | – | > 100 µM (inactive) | > 100 µM (inactive) | > 100 µM (inactive) | > 100 µM (inactive) | – | > 100 µM (inactive) | > 100 µM (inactive) | > 100 µM (inactive) | > 100 µM (inactive) | > 100 µM (inactive) | > 100 µM (inactive)
CC[n+]1c(/C=C/c2ccc(N(CCCl)CCCl)cc2)ccc2cc(I)ccc21 | 2.05 µM (inactive) | 0.319 µM (active) | 0.318 µM (active) | 2.51 µM (inactive) | 1.24 µM (inactive) | 6.52 µM | 5.93 µM (inactive) | 0.723 µM (active) | 1.24 µM (inactive) | 0.607 µM (active) | 0.217 µM (active) | 0.839 µM (active) | 0.608 µM (active) | 2.71 µM (inactive) | 1.28 µM (inactive) | 0.514 µM (active) | 1.51 µM (inactive) | 2.04 µM (inactive) | 0.912 µM (active) | 1.78 µM (inactive)
CCCc1c(C(=O)OCC)[nH]c(-c2ccc(-c3[nH]c(C(=O)OCC)c(CCC)c3C(=O)OCC)s2)c1C(=O)OCC | 50.1 µM (inactive) | > 100 µM (inactive) | 33.3 µM (inactive) | 43.9 µM (inactive) | 21.8 µM (inactive) | 92.5 µM | 8.97 µM (inactive) | 65 µM (inactive) | 72.1 µM (inactive) | 38.1 µM (inactive) | 46 µM (inactive) | 5.38 µM (inactive) | 18.4 µM (inactive) | 34.8 µM (inactive) | > 100 µM (inactive) | 66.1 µM (inactive) | – | 27.9 µM (inactive) | 95.5 µM (inactive) | 26.9 µM (inactive)
O=C1Oc2cc3c(c4cccc1c24)OCN(c1ccc(Cl)cc1)C3 | > 100 µM (inactive) | 9.23 µM (inactive) | 11.3 µM (inactive) | > 100 µM (inactive) | 14.3 µM (inactive) | 2.97 µM | 3.03 µM (inactive) | 7 µM (inactive) | > 100 µM (inactive) | 5.9 µM (inactive) | 4.82 µM (inactive) | > 52.7 µM (inactive) | 28.1 µM (inactive) | 3.13 µM (inactive) | 13.6 µM (inactive) | 34.9 µM (inactive) | 4.32 µM (inactive) | 48 µM (inactive) | > 49.2 µM (inactive) | 23.9 µM (inactive)
O=P(Oc1ccc2ccccc2c1)(N1CC1)N1CC1 | 67.9 µM (inactive) | 44.9 µM (inactive) | 53.3 µM (inactive) | 20.3 µM (inactive) | 4.84 µM (inactive) | > 100 µM | 10.7 µM (inactive) | 53.2 µM (inactive) | 16.2 µM (inactive) | 38.4 µM (inactive) | 26.4 µM (inactive) | 14.3 µM (inactive) | 89.1 µM (inactive) | 2.61 µM (inactive) | 23.5 µM (inactive) | 38.2 µM (inactive) | – | 10.9 µM (inactive) | 28.4 µM (inactive) | 2.15 µM (inactive)
